Laboratory results from ChEMBL document CHEMBL1781930, “Facile transformation of Biginelli pyrimidin-2(1H)-ones to pyrimidines. In vitro evaluation as inhibitors of Mycobacterium tuberculosis and modulators of cytostatic activity” (Eur J Med Chem, 2011).
Converted amounts (≈) assume the structure as drawn. The source made the active and inactive calls. No cut-off for these calls is given here.

Tests used:
[1] = Cytotoxicity against cat CRFK cells; format: cell-based, Felis catus
[2] = Cytotoxicity against human embryonic lung cells; format: cell-based
[3] = tested on: Human immunodeficiency virus; assay: Antiviral activity against HIV at subtoxic concentration; format: functional, organism-based
HeLa = assay: Cytostatic activity against human HeLa cells assessed as inhibition of cell proliferation after 3 days by particle counter assay; format: functional, cell-based; details: 72 h
FM3A = assay: Cytostatic activity against mouse FM3A cells assessed as inhibition of cell proliferation after 2 days by particle counter assay; format: functional, cell-based; details: 48 h
CCRF-CEM = assay: Cytostatic activity against human CEM cells assessed as inhibition of cell proliferation after 3 days by particle counter assay; format: functional, cell-based; details: 72 h
L1210 = assay: Cytostatic activity against mouse L1210 cells assessed as inhibition of cell proliferation after 2 days by particle counter assay; format: functional, cell-based; details: L1210, 48 h
[4] = tested on: Mycobacterium tuberculosis; assay: Antimycobacterial activity against Mycobacterium tuberculosis H37Rv ATCC 27294 at […] after 7 days by microplate alamar blue assay; format: functional; details: H37Rv ATCC 27294, 168 h
[5] = tested on: Mycobacterium tuberculosis; assay: Antimycobacterial activity against Mycobacterium tuberculosis H37Rv ATCC 27294 after 7 days by microplate alamar blue assay; format: functional; details: H37Rv ATCC 27294, 168 h

SMILES | Activity [3] | IC50 (HeLa) [µM] | IC50 (FM3A) [µM] | IC50 (CCRF-CEM) [µM] | IC50 (L1210) [µM] | MIC [5] [µM] | further results
COC(=O)c1c(C)nc(NCc2ccccc2)nc1-c1ccccc1 |  |  |  |  |  |  | MCC [1]: 4 µg/mL; MCC [2]: 4 µg/mL
CCOC(=O)c1c(C)nc(Cl)nc1-c1ccccc1 | inactive |  |  |  |  |  | 
CCOC(=O)c1cnc(NCc2ccccc2)nc1C | inactive | 147 | 306 | 480 | 378 |  | 
CCOC(=O)c1c(C)nc(N2CCOCC2)nc1-c1ccccc1 | inactive | ≥ 500 | > 500 | ≥ 500 | > 500 | 125 (≈ 41 µg/mL) | inhibition at […] [4]: 96%
COc1c(N2C[C@@H]3CCCN[C@@H]3C2)c(F)cc2c(=O)c(C(=O)O)cn(C3CC3)c12 [MOXIFLOXACIN] |  |  |  |  |  | 0.47 (≈ 0.189 µg/mL) | 
CCOC(=O)c1c(C)nc(NCCc2c[nH]c3ccccc23)nc1-c1ccccc1 | inactive | 23 | 34 | 31 | 28 |  | 
O=[N+]([O-])c1cn2c(n1)OC[C@@H](OCc1ccc(OC(F)(F)F)cc1)C2 [PRETOMANID] |  |  |  |  |  | 0.48 (≈ 0.172 µg/mL) | 
NNC(=O)c1ccncc1 [ISONIAZID] |  |  |  |  |  | 0.12 (≈ 0.0165 µg/mL) | 
COC(=O)c1c(C)nc(Cl)nc1-c1ccccc1 | inactive |  |  |  |  |  | 
